From patent US20240116985A1, “STAPLED PEPTIDES AND METHODS THEREOF” (priority 2020, published 2024)
Where two headings read alike, the source gives them in different places.

Target: T1, full-length beta-Catenin (Uniprot ID P35222) (Homo sapiens, UniProt P35222)
T1 construct: 10 nM full-length beta-Catenin (Uniprot ID P35222)
T1 sequence (P35222 1-781): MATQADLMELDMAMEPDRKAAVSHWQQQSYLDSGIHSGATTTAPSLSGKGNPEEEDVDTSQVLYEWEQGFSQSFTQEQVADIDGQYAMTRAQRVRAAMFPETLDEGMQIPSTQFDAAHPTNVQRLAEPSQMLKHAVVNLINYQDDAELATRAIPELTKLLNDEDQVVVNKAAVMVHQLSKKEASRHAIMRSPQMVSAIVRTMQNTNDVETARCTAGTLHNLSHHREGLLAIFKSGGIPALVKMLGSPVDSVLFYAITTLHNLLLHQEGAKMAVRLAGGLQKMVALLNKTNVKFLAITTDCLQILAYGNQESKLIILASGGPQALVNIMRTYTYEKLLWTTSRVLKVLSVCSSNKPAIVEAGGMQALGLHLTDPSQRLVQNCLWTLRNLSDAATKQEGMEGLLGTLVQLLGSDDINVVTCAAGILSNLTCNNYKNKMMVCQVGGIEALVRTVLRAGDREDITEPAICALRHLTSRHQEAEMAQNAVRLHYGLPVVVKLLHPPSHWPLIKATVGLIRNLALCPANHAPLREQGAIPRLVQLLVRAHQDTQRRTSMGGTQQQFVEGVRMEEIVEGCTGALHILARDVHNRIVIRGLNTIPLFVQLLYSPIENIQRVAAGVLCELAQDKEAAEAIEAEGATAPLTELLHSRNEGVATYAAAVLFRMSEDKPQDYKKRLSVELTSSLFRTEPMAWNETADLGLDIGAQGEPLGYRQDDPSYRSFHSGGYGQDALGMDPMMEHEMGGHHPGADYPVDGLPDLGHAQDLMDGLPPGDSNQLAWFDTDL
Test: Fluorescence polarization IC50 (beta-catenin / 5FAM-TCF4 10-53 competition)
Type: binding

[1] = fluorescence polarization; read-out: beta-Catenin FP IC50

| SMILES | IC50 [1] [nM] | other results |
| --- | --- | --- |
| C[C@@H]1NC(=O)[C@H](C)NC(=O)[C@H](CC(=O)O)NC(=O)[C@H](CC(=O)O)NC(=O)C2(CCCC=CCCCOC(=O)N3CC[C@@](C(=O)N[C@@H](Cc4ccsc4)C(=O)N[C@@H](Cc4csc5ccccc45)C(=O)N[C@@H](Cc4c[nH]cn4)C(N)=O)(C3)NC(=O)[C@H](CCC(N)=O)NC(=O)[C@H](Cc3ccccc3)NC1=O)CCCC=CC[C@]1(CCCN1C(=O)Oc1ccccc1)C(=O)N[C@@H](CC(=O)O)C(=O)N[C@@H](CC(C)(C)C)C(=O)N2 (stereo partly drawn) [I-2326, CO2Ph-PL3-Asp-Npg-B5-Asp-Asp-Ala-Ala-Phe-Gln-PyrS2-3Thi-BztA-His-NH2] |  | IC50 (beta-Catenin FP IC50 (nM), fluorescence polarization): 185 nM |
| CC(=O)N1CCC[C@]12CC=CCCCC1(CCCC=CCCCOC(=O)N3CC[C@@](C(=O)N[C@@H](Cc4ccsc4)C(=O)N[C@@H](Cc4csc5ccccc45)C(=O)N[C@@H](CCC(N)=O)C(N)=O)(C3)NC(=O)[C@H](CC(C)C)NC(=O)[C@H](Cc3ccccc3)NC(=O)[C@H](C)NC(=O)[C@H](C)NC(=O)[C@H](CCC(=O)OCCSSc3ccccc3)NC(=O)[C@H](CC(=O)O)NC1=O)NC(=O)[C@H](CC(C)(C)C)NC(=O)[C@H](CC(=O)O)NC2=O (stereo partly drawn) [I-1957, Ac-PL3-Asp-Npg-B5-Asp-[EtSSPh]GluE-Ala-Ala-Phe-Leu-PyrS2-3Thi-BztA-Gln-NH2] |  | IC50 (read-out: beta-Catenin FP IC50; fluorescence polarization): 567 nM |
| CC(=O)N1CCC[C@]12CC=CCCCC1(CCCC=CCCCOC(=O)N3CC[C@@](C(=O)N[C@@H](Cc4ccsc4)C(=O)N[C@@H](Cc4csc5ccccc45)C(=O)N[C@@H](CCC(N)=O)C(N)=O)(C3)NC(=O)[C@H](CC(C)C)NC(=O)[C@H](Cc3ccccc3)NC(=O)[C@H](C)NC(=O)[C@H](C)NC(=O)[C@H](CN3CCC[C@H](C(=O)O)C3)NC(=O)[C@H](CC(=O)O)NC1=O)NC(=O)[C@H](CC(C)(C)C)NC(=O)[C@H](CC(=O)O)NC2=O (stereo partly drawn) [I-1921, Ac-PL3-Asp-Npg-B5-Asp-S3COOPipA-Ala-Ala-Phe-Leu-PyrS2-3Thi-BztA-Gln-NH2] | 22 |  |
| CC(C)C[C@@H]1NC(=O)[C@H](Cc2ccccc2)NC(=O)[C@H](C)NC(=O)[C@H](C)NC(=O)[C@H](Cc2cccc(C(=O)O)c2)NC(=O)[C@H](CC(=O)O)NC(=O)C2(CCCC=CCCCOC(=O)N3CC[C@@](C(=O)N[C@@H](Cc4ccccc4Cl)C(=O)N[C@@H](Cc4csc5ccccc45)C(=O)N[C@@H](CCC(N)=O)C(N)=O)(C3)NC1=O)CCCC=CCCCC(=O)N1CCC[C@@H]1C(=O)N[C@@H](CC(=O)O)C(=O)N[C@@H](CC(C)(C)C)C(=O)N2 (stereo partly drawn) [I-1985, ProAm6-Asp-Npg-B5-Asp-3COOHF-Ala-Ala-Phe-Leu-PyrS2-2C1F-BztA-Gln-NH2] | 325 |  |
| CC(=O)N1CCC[C@]12CC=CCCCC1(CCCC=CCCOC(=O)N3CCC(C(=O)N[C@@H](Cc4ccccc4C(F)(F)F)C(=O)N[C@@H](Cc4csc5ccccc45)C(=O)N[C@@H](CCC(N)=O)C(N)=O)(CC3)NC(=O)[C@H](CC(C)C)NC(=O)[C@H](Cc3ccccc3)NC(=O)[C@H](C)NC(=O)[C@H](C)NC(=O)[C@H](Cc3cccc(C(=O)O)c3)NC(=O)[C@H](CC(=O)O)NC1=O)NC(=O)[C@H](CC(C)(C)C)NC(=O)[C@H](CC(=O)O)NC2=O (stereo partly drawn) [I-2580, Ac-PL3-Asp-Npg-B5-Asp-3COOHF-Ala-Ala-Phe-Leu-SPip1-2F3MeF-BztA-Gln-NH2] | 993 |  |
| CC(=O)N1CCC[C@]12CC=CCCCC1(CCCC=CCCCOC(=O)N3CC[C@@](C(=O)N[C@@H](Cc4ccsc4)C(=O)N[C@@H](Cc4csc5ccccc45)C(=O)N[C@@H](CCC(N)=O)C(=O)NC4CCCCC4)(C3)NC(=O)[C@H](CC(N)=O)NC(=O)[C@H](Cc3ccccc3)NC(=O)[C@H](C)NC(=O)[C@H](C)NC(=O)[C@H](CN(CC(=O)O)CC(F)(F)F)NC(=O)[C@H](CC(=O)O)NC1=O)NC(=O)[C@H](CC(C)(C)C)NC(=O)[C@H](CC(=O)O)NC2=O (stereo partly drawn) [I-1642, Ac-PL3-Asp-Npg-B5-Asp-TfeGA-Ala-Ala-Phe-Asn-PyrS2-3Thi-BztA-Gln-NHCyHe] | 36 |  |
| CC(=O)N1CCC[C@]12CC=CCCCC1(CCCC=CCCCCC[C@@](C)(C(=O)N[C@@H](Cc3ccsc3)C(=O)N[C@@H](Cc3csc4ccccc34)C(=O)N[C@@H](CCC(N)=O)C(N)=O)NC(=O)[C@H](CC(C)C)NC(=O)[C@H](Cc3ccccc3)NC(=O)[C@H](C)NC(=O)[C@H](C)NC(=O)[C@H](CC(=O)O)NC(=O)[C@H](CC(=O)O)NC1=O)NC(=O)[C@H](CC(C)(C)C)NC(=O)[C@H](CC(=O)O)NC2=O (stereo partly drawn) [I-1820, Ac-PL3-Asp-Npg-B5-Asp-Asp-Ala-Ala-Phe-Leu-S7-3Thi-BztA-Gln-NH2] | 422 |  |
| CC(=O)N1CCC[C@]12CC=CCCCC1(CCCC=CCCCOC(=O)N3CC[C@@](C(=O)N[C@@H](Cc4cccc(-c5ccccc5)c4)C(=O)N[C@@H](CC4CCC4)C(=O)N[C@@H](CCC(N)=O)C(N)=O)(C3)NC(=O)[C@H](CC(C)C)NC(=O)[C@H](Cc3ccccc3)NC(=O)[C@H](C)NC(=O)[C@H](C)NC(=O)[C@H](Cc3cccc(C(=O)O)c3)NC(=O)[C@H](CC(=O)O)NC1=O)NC(=O)[C@H](CC(C)(C)C)NC(=O)[C@H](CC(=O)O)NC2=O (stereo partly drawn) [I-2255, Ac-PL3-Asp-Npg-B5-Asp-3COOHF-Ala-Ala-Phe-Leu-PyrS2-[Ph]3SF-Cba-Gln-NH2] | 7650 |  |
| CC(=O)N1CCC[C@]12CC=CCCCC1(CCCC=CCCCCOC(=O)N3CC(C(=O)N[C@@H](Cc4ccsc4)C(=O)N[C@@H](Cc4csc5ccccc45)C(=O)N[C@@H](CCC(N)=O)C(N)=O)(C3)NC(=O)[C@H](CC(C)C)NC(=O)[C@H](Cc3ccccc3)NC(=O)[C@H](C)NC(=O)C(C)(C)NC(=O)[C@H](Cc3cccc(C(=O)O)c3)NC(=O)[C@H](CC(=O)O)NC1=O)NC(=O)[C@H](CC(C)(C)C)NC(=O)[C@H](CC(=O)O)NC2=O (stereo partly drawn) [I-2618, Ac-PL3-Asp-Npg-B5-Asp-3COOHF-Aib-Ala-Phe-Leu-Az3-3Thi-BztA-Gln-NH2] | 77 |  |

Further lines, with some results ahead:

| IC50 [1] [nM] | SMILES | other results |
| --- | --- | --- |
| 72 | CC(=O)N1CCC[C@]12CC=CCCCC1(CCCC=CCCCOC(=O)N3CC[C@@](C(=O)N[C@@H](Cc4ccccc4C(F)(F)F)C(=O)N[C@@H](Cc4csc5ccccc45)C(=O)N[C@@H](CCC(N)=O)C(=O)N[C@@H](CC(C)C)C(=O)NC4(C(N)=O)CC4)(C3)NC(=O)[C@H](CC(C)C)NC(=O)[C@H](Cc3ccccc3)NC(=O)[C@H](C)NC(=O)[C@H](C)NC(=O)[C@H](Cc3cccc(C(=O)O)c3)NC(=O)[C@H](CC(=O)O)NC1=O)NC(=O)[C@H](CC(C)(C)C)NC(=O)[C@H](CC(=O)O)NC2=O (stereo partly drawn) [I-2389, Ac-PL3-Asp-Npg-B5-Asp-3COOHF-Ala-Ala-Phe-Leu-PyrS2-2F3MeF-BztA-Gln-Leu-Cpg-NH2] |  |
| 16 | CC(=O)N1CCC[C@]12CC=CCCCC1(CCCC=CCCCOC(=O)N3CC[C@@](C(=O)N[C@@H](Cc4ccsc4)C(=O)N[C@@H](Cc4csc5ccccc45)C(=O)N[C@@H](CCC(N)=O)C(N)=O)(C3)NC(=O)[C@H](CC(C)C)NC(=O)[C@H](Cc3ccccc3)NC(=O)[C@H](C)NC(=O)[C@H](C)NC(=O)[C@H](CCN(CC(=O)O)C(=O)CCN(C)C)NC(=O)[C@H](CC(=O)O)NC1=O)NC(=O)[C@H](CC(C)(C)C)NC(=O)[C@H](CC(=O)O)NC2=O (stereo partly drawn) [I-2244, Ac-PL3-Asp-Npg-B5-Asp-[Me2NPr]GAbu-Ala-Ala-Phe-Leu-PyrS2-3Thi-BztA-Gln-NH2] |  |
| 1520 | CC(=O)N1CCC[C@]12CC=CCCCC1(CCCC=CCCCOC(=O)N3CC[C@@](C(=O)N[C@@H](Cc4ccsc4)C(=O)N[C@@H](Cc4c[nH]c5ccccc45)C(=O)N[C@@H](CCC(N)=O)C(N)=O)(C3)NC(=O)[C@H](CC(N)=O)NC(=O)[C@H](Cc3ccccc3)NC(=O)[C@H](C)NC(=O)[C@H](C)NC(=O)[C@H]([C@@H](C)O)NC(=O)[C@H](CC(N)=O)NC1=O)NC(=O)[C@H](CC(C)(C)C)NC(=O)[C@H](CC(=O)O)NC2=O (stereo partly drawn) [I-1877, Ac-PL3-Asp-Npg-B5-Asn-Thr-Ala-Ala-Phe-Asn-PyrS2-3Thi-Trp-Gln-NH2] |  |
| 235 | CC(=O)N1CCC[C@]12CC=CCCCC1(CCCC=CCCCOC(=O)N3CC[C@@](C(=O)N[C@@H](Cc4ccsc4)C(=O)N[C@@H](Cc4csc5ccccc45)C(=O)N[C@@H](CC(N)=O)C(N)=O)(C3)NC(=O)[C@H](CC(N)=O)NC(=O)[C@H](Cc3ccccc3)NC(=O)[C@H](C)NC(=O)[C@H](C)NC(=O)[C@H]([C@@H](C)O)NC(=O)[C@H](CC(N)=O)NC1=O)NC(=O)[C@H](CC(C)(C)C)NC(=O)[C@H](CC(=O)O)NC2=O (stereo partly drawn) [I-1746, Ac-PL3-Asp-Npg-B5-Asn-Thr-Ala-Ala-Phe-Asn-PyrS2-3Thi-BztA-Asn-NH2] |  |
| 212 | CC(=O)N1CCC[C@]12CCCCCCC1(CCCCCCCCOC(=O)N3CC[C@@](C(=O)N[C@@H](Cc4ccsc4)C(=O)N[C@@H](Cc4csc5ccccc45)C(=O)N[C@@H](C)C(N)=O)(C3)NC(=O)[C@H](CC(C)C)NC(=O)[C@H](Cc3ccccc3)NC(=O)[C@H](C)NC(=O)[C@H](C)NC(=O)[C@H](CN(CC(=O)O)CC(F)(F)F)NC(=O)[C@H](CC(=O)O)NC1=O)NC(=O)[C@H](CC(C)(C)C)NC(=O)[C@H](CC(=O)O)NC2=O (stereo partly drawn) [I-1720, Ac-PL3-Asp-Npg-B5-Asp-TfeGA-Ala-Ala-Phe-Leu-PyrS2-3Thi-BztA-Ala-NH2] |  |
